From US20160209435A1, “Acetaminophen as a Marker of Hepatic Disorders” (THE ARIZONA BOARD OF REGENTS, on behalf of THE UNIVERSITY …, priority 2008, published 2016)
Like-named read-outs stand apart in the source and are kept apart here. One block for each compound: values may come before it.

How the values were obtained:
[1] = APAP-GLUC concentration in plasma of pediatric patients after APAP administration (HPLC); assay type: in vivo, human; conditions: for concentration at 1 h / concentration at 2 h / concentration at 4 h / concentration at 3 h: human, plasma; for concentration at 1 h: 1 h after APAP; for concentration at 2 h: 2 h after APAP; for concentration at 4 h: 4 h after APAP; for concentration at 3 h: 3 h after APAP
Method: (§1) A study was conducted in pediatric patients whose disease status had been biopsy verified. Twenty-four pediatric patients (12-18 yrs) were desirable for the preliminary study due to the presumed lack of confounding factors (e.g., alcoholic consumption, illicit drug use) and the increasing prevalence of childhood obesity. Conversely, pediatric patients are limited in the amount of real liver damage that can take place simply due to age, where pediatric patients are incapable of developing ballooning degeneration and are limited to fat deposition, inflammation, and fibrosis.
High Performance Liquid Chromatography Analysis. APAP and its metabolites in plasma, and urine samples were quantified by high performance liquid chromatography analysis based on previously described methods (Howie et al., 1977a; Chen et al., 2000; Slitt et al., 2003d). APAP and its metabolites were resolved using a Zorbmax™ SB-C18 reverse-phase 4.6-mm×25-cm column with a Phenomenex™ Security Guard Column Guard and eluted using a mobile phase composed of 12.5% HPLC-grade methanol, 1% acetic acid, and 86.5% water, run isocratically at a flow rate of 1.2 mL/minute. The elution of metabolites was monitored at a wavelength of 254 nm. Retention times of APAP and its metabolites were determined by comparison with that of authentic standards. […] Samples were analyzed using a Beckman System Gold HPLC system (Beckman Coulter, Inc., Fullerton, Calif.) equipped with a 128-nm solvent module and a 166-nm detector. Quantitation was based on integrated peak areas. The concentrations of APAP and its metabolites were calculated using an APAP standard curve since the molar extinction coefficients of APAP and its conjugated metabolites are approximately the same (Howie et al., 1977b). To precipitate proteins in plasma, and urine, samples were diluted 1:2, 1:2, and 1:3, respectively, with ice-cold methanol and centrifuged at 4,000×g for 30 minutes at 4° C. The resulting supernatants were collected and diluted in mobile phase 1:3 (urine) or 1:2 (plasma) prior to HPLC analysis.
Liver fibrosis was histologically characterized as mild (minimal scarring around blood vessels), moderate (scarring extending out from the liver blood vessels), or severe (scarring forming bridges between blood vessels).
Liver inflammation was histologically characterized as mild (less than 2 foci of inflammation), moderate (2-4 foci of inflammation), or severe (more than 4 foci of inflammation).

[2] = APAP-GLUC concentration in urine after APAP administration (HPLC); assay type: in vivo, human; conditions: normal volunteers, steatosis, steatohepatitis
Method: as §1
High Performance Liquid Chromatography Analysis. APAP and its metabolites in plasma, and urine samples were quantified by high performance liquid chromatography analysis based on previously described methods (Howie et al., 1977a; Chen et al., 2000; Slitt et al., 2003d). […] The elution of metabolites was monitored at a wavelength of 254 nm. Retention times of APAP and its metabolites were determined by comparison with that of authentic standards. […] Samples were analyzed using a Beckman System Gold HPLC system (Beckman Coulter, Inc., Fullerton, Calif.) equipped with a 128-nm solvent module and a 166-nm detector. Quantitation was based on integrated peak areas. […]

[3] = MCD rats, APAP 1 mmol/kg; cited from earlier work
[4] = cited from earlier work
[5] = NASH, read-out: Mean plasma concentration
[6] = NASH, read-out: Median plasma concentration
[7] = Normal, read-out: Mean plasma concentration
[8] = Normal, read-out: Median plasma concentration
[9] = Steatosis, read-out: Mean plasma concentration
[10] = Steatosis, read-out: Median plasma concentration

Plasma concentration, steatohepatitis versus simple steatosis ([1]; all time points measured): significantly higher | concentration at 1 h [1, 5]: 60.7 µM | concentration at 1 h [1, 6]: 75.9 µM | concentration at 2 h [1, 5]: 72.7 µM | concentration at 2 h [1, 6]: 66.4 µM | concentration at 4 h [1, 5]: 68.3 µM | concentration at 4 h [1, 6]: 62.6 µM | concentration at 1 h [1, 7]: 29.9 µM | concentration at 1 h [1, 8]: 29 µM | concentration at 2 h [1, 7]: 54.3 µM | concentration at 2 h [1, 8]: 48.9 µM | concentration at 3 h [1, 7]: 46.7 µM | concentration at 3 h [1, 8]: 39.2 µM | concentration at 1 h [1, 9]: 30.5 µM | concentration at 1 h [1, 10]: 32.6 µM | concentration at 2 h [1, 9]: 44.3 µM | concentration at 2 h [1, 10]: 41.1 µM | concentration at 4 h [1, 9]: 35.5 µM | concentration at 4 h [1, 10]: 35.3 µM | Plasma levels, hepatic fibrosis versus no hepatic fibrosis ([1]; pediatric patients): Higher | Plasma levels, hepatic inflammation versus no hepatic inflammation ([1]; pediatric patients): Higher
Structure (SMILES): CC(=O)Nc1ccc(O[C@@H]2O[C@H](C(=O)O)[C@@H](O)[C@H](O)[C@H]2O)cc1 [APAP-GLUC, acetaminophen (APAP)-glucuronide]
Urine levels, NASH versus other groups [2]: not significantly different between patients with NASH and other groups until four hours | route of excretion relative to control [3]: shift from biliary to plasma excretion

Structure (SMILES): CC(=O)Nc1ccc(O)cc1 [Acetaminophen]
plasma half-life ([4]; first-order elimination): 2.0 to 2.4 h | fraction of administered dose conjugated with glucuronic acid ([4]; in vivo): At least one-half | fraction of administered dose conjugated with sulfate ([4]; in vivo): one-third | fraction metabolized by CYP-450-dependent mixed-function oxidase pathway ([4]; primarily via CYP2E1): 5-9% | dose excreted unchanged by the kidneys ([4]; recommended dose): Less than 5%
